Test [1] addresses MBP-Rns (Escherichia coli, UniProt P16114, I14F/I17F). Briefly: biochemical.
Test [2] has as its target T1, MBP-Rns (Escherichia coli, UniProt P16114).
T1 construct: full-length codon-optimized Rns with N-terminal MBP solubility tag kept (pMBPRnsOPT2, pMalC2), expressed in E. coli BL21, MBPTrap and heparin columns
Briefly: EMSA, inhibition of DNA binding. Type of test: biochemical. In general terms: A gel shift assay detects complexes by their altered migration in electrophoresis.

Test [3] concerns the target MBP-Rns (Escherichia coli, UniProt P16114, H20A). Briefly: biochemical.
For test [4], the target named is MBP-Rns (Escherichia coli, UniProt P16114, R75A). Nature of the test: biochemical.

The source of these data is paper PMC12379584, “Characterization of the ligand binding pocket of the virulence regulator Rns, a member of the AraC/XylS family of transcription factors” (mSphere, 2025).

On to `CCCCCCCCCC(=O)O` [decanoic acid], for which the IC50 (as a rule, the point on the concentration scale where inhibition reaches its midpoint) against MBP-Rns [1] is more than 10 mM; at MBP-Rns [2], 1.15 mM; at MBP-Rns [3], more than 10 mM; against MBP-Rns [4], more than 10 mM.
